Assay results as given in patent publication US20240216272A1, “PHARMACEUTICAL PREPARATION” (KOWA COMPANY, LTD., priority 2014, published 2024).

Legend:
Assay type in all cases: physicochemical
[1] = Test Example 7: Preservation Test No. 1, color difference (ΔYI) at 60° C.; settings: for ΔYI: aqueous composition of Table 7 (phosphate, pH 6.7), 60° C. for 3 months; for Evaluation (ΔYI): aqueous composition of Table 7, 60° C. for 3 months
Method: An aqueous composition of the formulation shown in Table 7 was prepared in accordance with a conventional method, and then placed in a container made of polyethylene (PE), polypropylene (PP), or polyvinyl chloride (PVC) to produce a pharmaceutical preparation. Each of the resulting pharmaceutical preparations was preserved at 60° C. for 3 months, and a color difference (ΔYI) before and after the preservation was measured using a color difference meter (spectrophotometer, CM-700d: Konica Minolta Sensing, Inc.). A ΔYI value of 5 or more was rated as “b”, and a ΔYI value of less than 5 was rated as “a”. [table]

[2] = Test Example 10: Preservation Test No. 4, precipitation of crystals at 0° C.; design: key to Presence or Absence of Precipitation of Crystals: the absence of precipitation of crystals was rated as “a”; the presence of precipitation of crystals was rated as “b”
Method: An aqueous composition of the formulation shown in Table 13 was prepared in accordance with a conventional method, and then placed in a container made of polyethylene terephthalate (PET) to produce a pharmaceutical preparation. The resulting pharmaceutical preparation was preserved at 0° C. for 21 days, and then visually evaluated for the presence or absence of precipitation of crystals. Note that the absence of precipitation of crystals was rated as “a”, and the presence of precipitation of crystals was rated as “b”. [table]

[3] = Test Example 8: Preservation Test No. 2, color difference (ΔYI) at 60° C.; settings: for ΔYI: aqueous composition of Table 9 (boric acid, pH 6.7), 60° C. for 3 months; for Evaluation (ΔYI): aqueous composition of Table 9, 60° C. for 3 months
Method: An aqueous composition of the formulation shown in Table 9 was prepared in accordance with a conventional method, and then placed in a container made of polyethylene (PE) or polypropylene (PP) to produce a pharmaceutical preparation. Each of the resulting pharmaceutical preparations was preserved at 60° C. for 3 months, and a color difference (ΔYI) before and after the preservation was measured using a color difference meter (spectrophotometer, CM-700d: Konica Minolta Sensing, Inc.). A ΔYI value of 5 or more was rated as “b”, and a ΔYI value of less than 5 was rated as “a”. [table]

[4] = Test Example 1: photostability of ripasudil (powder), analogs by HPLC; settings: for Analogs (%): powder in glass petri dish, D65 fluorescent lamp 4000 lux, 25° C.
Method: In the following test examples, ripasudil monohydrochloride dihydrate can be produced in accordance with the method described in WO2006/057397, for example. Moreover, in the following test examples, measurement of ripasudil and its analogs using HPLC was performed using an ODS column as the column, 0.01 mol/L phosphate buffer and acetonitrile as the mobile phase, and an ultraviolet absorptiometer (wavelength: 280 nm) as the detector.
The stability of ripasudil with respect to light was evaluated by examining the presence or absence of degradation products formed by exposure to light.
Specifically, powdery ripasudil monohydrochloride dihydrate was spread in a glass petri dish to a thickness of 3 mm or less, and then irradiated with 4000 lux of light to give a cumulative radiation dose of 400,000, 800,000, or 1,200, 000 lux·hr, at 25° C., with a D65 fluorescent lamp as the light source, using a photostability tester (LT-120A: Nagano Science Corporation).
To examine the presence or absence of photodegradation products of ripasudil, the presence or absence of an increase in the amount of ripasudil analogs was evaluated for the sample before and after exposure to light. The amount of analogs was evaluated as the ratio (%) of the peak area of analogs relative to the peak area of ripasudil, using HPLC.

[5] = Test Example 5: photostability in plastic container containing an ultraviolet absorber; settings: for Analogs (%): aqueous composition 0.4 g/100 mL as free form, pH 6.0, polypropylene container containing ultraviolet absorber (transmittance 300 to 335 nm: 7.2%)
Method: Based on the results obtained in Test Examples 3 and 4, stabilization of an aqueous composition containing ripasudil was attempted by storing the aqueous composition in a container containing an ultraviolet absorber.
Specifically, an aqueous composition containing, per 100 mL, 0.4896 g of ripasudil monohydrochloride dihydrate (0.4 g, as the free form of ripasudil), 0.4 g of anhydrous sodium dihydrogen phosphate, 2.136 g of glycerin, 0.002 g of benzalkonium chloride, an appropriate amount of sodium hydroxide (pH 6.0), and sterile purified water (balance) was prepared. This aqueous composition was then stored in the below-described container for eye drops made of polypropylene, which contained an ultraviolet absorber. The aqueous composition was then irradiated with 4000 lux of light to give a cumulative radiation dose of 1,200,000 lux.hr, at 25° C., with a D65 fluorescent lamp as the light source, using a photostability tester (LT-120A: Nagano Science Corporation).
The amount of ripasudil analogs was evaluated for the sample before and after exposure to light, as in Test Example 1.
A container for eye drops made of polypropylene into which a benzotriazole-based ultraviolet absorber was mixed was used.

ΔYI ([1]; container PE): 4.07
ΔYI ([1]; container PP): 4.42
ΔYI ([1]; container PVC): 7.45
Presence or Absence of Precipitation of Crystals ([2]; aqueous composition of Table 13 (boric acid, pH 6.7), 0° C. for 21 days, container PET): a
ΔYI ([3]; container PE): 4.15
ΔYI ([3]; container PP): 4.64
Analogs (%) ([4]; before exposure to light): 0.11%
Analogs (%) ([4]; cumulative radiation dose 400,000 lux·hr): 0.14%
Analogs (%) ([4]; cumulative radiation dose 800,000 lux·hr): 0.16%
Analogs (%) ([4]; cumulative radiation dose 1,200,000 lux·hr): 0.16%
Analogs (%) ([5]; D65 lamp, 25° C., 1,200,000 lux·hr): 0.55%
Analogs (%) ([5]; before exposure to light): 0.11%
photostability of ripasudil in the aqueous composition ([5]; container with average transmittance at 300 to 335 nm of 7.2%, in words): improved
Structure (SMILES): C[C@H]1CNCCCN1S(=O)(=O)c1cccc2cncc(F)c12 [ripasudil, 4-fluoro-5-[[(2S)-2-methyl-1,4-diazepan-1-yl]sulfonyl]isoquinoline]
Evaluation (ΔYI) ([1]; container PE): a (a ΔYI value of less than 5 was rated as “a”)
Evaluation (ΔYI) ([1]; container PP): a (a ΔYI value of less than 5 was rated as “a”)
Evaluation (ΔYI) ([1]; container PVC): b (A ΔYI value of 5 or more was rated as “b”)
precipitation of crystals ([2]; changed formulation, preserved at low temperature, container made of PET, in words): no precipitation of crystals was observed
Evaluation (ΔYI) ([3]; container PE): a (a ΔYI value of less than 5 was rated as “a”)
Evaluation (ΔYI) ([3]; container PP): a (a ΔYI value of less than 5 was rated as “a”)
formation of photodegradation products ([4]; powder, up to 1,200,000 lux·hr, in words): no formation of photodegradation products was observed
